Laboratory results reported in ChEMBL document CHEMBL2440076, “New triarylpyrazoles as broad-spectrum anticancer agents: design, synthesis, and biological evaluation” (Eur J Med Chem, 2013).

Experiments:
Format in all cases: functional
[1] = tested on: DU-145; assay: Growth inhibition of human DU145 cells assessed as cell growth at 5X10'-6 M after 48 hrs by sulforhodamine B assay; conditions: DU-145, 48 h, read-out: Activity
[2] = tested on: NCI-H460; assay: Growth inhibition of human NCI-H460 cells assessed as cell growth at 5X10'-8 M after 48 hrs by sulforhodamine B assay; conditions: NCI-H460, 48 h, read-out: Activity
[3] = tested on: OVCAR-5; assay: Growth inhibition of human OVCAR5 cells assessed as cell growth at 3X10'-5 M after 48 hrs by sulforhodamine B assay; conditions: OVCAR-5, 48 h, read-out: Activity
[4] = tested on: COLO 205; assay: Growth inhibition of human COLO205 cells assessed as cell growth at 3X10'-5 M after 48 hrs by sulforhodamine B assay; conditions: COLO 205, 48 h, read-out: Activity
[5] = tested on: BT-549; assay: Growth inhibition of human BT549 cells assessed as cell growth at 3X10'-9 M after 48 hrs by sulforhodamine B assay; conditions: BT-549, 48 h, read-out: Activity
[6] = tested on: SK-MEL-2; assay: Growth inhibition of human SK-MEL-2 cells assessed as cell growth at 3X10'-6 M after 48 hrs by sulforhodamine B assay; conditions: SK-MEL-2, 48 h, read-out: Activity
[7] = tested on: UACC-62; assay: Growth inhibition of human UACC62 cells assessed as cell growth at 3X10'-8 M after 48 hrs by sulforhodamine B assay; conditions: UACC-62, 48 h, read-out: Activity
[8] = tested on: TK-10; assay: Growth inhibition of human TK10 cells assessed as cell growth at 3X10'-8 M after 48 hrs by sulforhodamine B assay; conditions: TK-10, 48 h, read-out: Activity
[9] = tested on: HOP-92; assay: Growth inhibition of human HOP92 cells assessed as cell growth at 3X10'-7 M after 48 hrs by sulforhodamine B assay; conditions: HOP-92, 48 h, read-out: Activity
[10] = tested on: OVCAR-5; assay: Growth inhibition of human OVCAR5 cells assessed as cell growth at 3X10'-6 M after 48 hrs by sulforhodamine B assay; conditions: OVCAR-5, 48 h, read-out: Activity
[11] = tested on: OVCAR-8; assay: Growth inhibition of human OVCAR8 cells assessed as cell growth at 3X10'-6 M after 48 hrs by sulforhodamine B assay; conditions: OVCAR-8, 48 h, read-out: Activity
[12] = tested on: A549; assay: Growth inhibition of human A549/ATCC cells assessed as cell growth at 3X10'-6 M after 48 hrs by sulforhodamine B assay; conditions: A549, 48 h, read-out: Activity
[13] = Growth inhibition of human HCC2998 cells assessed as cell growth at 3X10'-6 M after 48 hrs by sulforhodamine B assay; conditions: HCC 2998, 48 h, read-out: Activity
[14] = tested on: MDA-MB-231; assay: Growth inhibition of human MDA-MB-231 cells assessed as cell growth at 3X10'-6 M after 48 hrs by sulforhodamine B assay; conditions: MDA-MB-231, 48 h, read-out: Activity
[15] = tested on: NCI-H522; assay: Growth inhibition of human NCI-H522 cells assessed as cell growth at 3X10'-5 M after 48 hrs by sulforhodamine B assay; conditions: NCI-H522, 48 h, read-out: Activity
[16] = tested on: UACC-257; assay: Growth inhibition of human UACC257 cells assessed as cell growth at 3X10'-5 M after 48 hrs by sulforhodamine B assay; conditions: UACC-257, 48 h, read-out: Activity
[17] = tested on: SF-268; assay: Growth inhibition of human SF268 cells assessed as cell growth at 3X10'-9 M after 48 hrs by sulforhodamine B assay; conditions: SF-268, 48 h, read-out: Activity
[18] = tested on: M14; assay: Growth inhibition of human M14 cells assessed as cell growth at 3X10'-8 M after 48 hrs by sulforhodamine B assay; conditions: M14, 48 h, read-out: Activity
[19] = tested on: A549; assay: Growth inhibition of human A549/ATCC cells assessed as cell growth at 3X10'-8 M after 48 hrs by sulforhodamine B assay; conditions: A549, 48 h, read-out: Activity
[20] = tested on: IGROV-1; assay: Growth inhibition of human IGROV1 cells assessed as cell growth at 3X10'-5 M after 48 hrs by sulforhodamine B assay; conditions: IGROV-1, 48 h, read-out: Activity
[21] = tested on: KM12; assay: Growth inhibition of human KM12 cells assessed as cell growth at 3X10'-8 M after 48 hrs by sulforhodamine B assay; conditions: KM12, 48 h, read-out: Activity
[22] = tested on: MDA-MB-231; assay: Growth inhibition of human MDA-MB-231 cells assessed as cell growth at 3X10'-7 M after 48 hrs by sulforhodamine B assay; conditions: MDA-MB-231, 48 h, read-out: Activity
[23] = tested on: SR; assay: Growth inhibition of human SR cells assessed as cell growth at 3X10'-7 M after 48 hrs by sulforhodamine B assay; conditions: read-out: Activity
[24] = tested on: HT-29; assay: Growth inhibition of human HT-29 cells assessed as cell growth at 3X10'-9 M after 48 hrs by sulforhodamine B assay; conditions: HT-29, 48 h, read-out: Activity
[25] = Growth inhibition of human Hs 578T cells assessed as cell growth at 3X10'-6 M after 48 hrs by sulforhodamine B assay; conditions: read-out: Activity
[26] = tested on: SNB-75; assay: Growth inhibition of human SNB75 cells assessed as cell growth at 3X10'-8 M after 48 hrs by sulforhodamine B assay; conditions: SNB-75, 48 h, read-out: Activity
[27] = tested on: Malme-3M; assay: Growth inhibition of human MALME-3M cells assessed as cell growth at 3X10'-5 M after 48 hrs by sulforhodamine B assay; conditions: read-out: Activity
[28] = tested on: SNB-75; assay: Growth inhibition of human SNB75 cells assessed as cell growth at 3X10'-7 M after 48 hrs by sulforhodamine B assay; conditions: SNB-75, 48 h, read-out: Activity
[29] = tested on: IGROV-1; assay: Growth inhibition of human IGROV1 cells assessed as cell growth at 3X10'-6 M after 48 hrs by sulforhodamine B assay; conditions: IGROV-1, 48 h, read-out: Activity
[30] = tested on: KM12; assay: Growth inhibition of human KM12 cells assessed as cell growth at 3X10'-9 M after 48 hrs by sulforhodamine B assay; conditions: KM12, 48 h, read-out: Activity
[31] = tested on: SK-MEL-2; assay: Growth inhibition of human SK-MEL-2 cells assessed as cell growth at 3X10'-7 M after 48 hrs by sulforhodamine B assay; conditions: SK-MEL-2, 48 h, read-out: Activity
[32] = tested on: 786-0; assay: Growth inhibition of human 786-0 cells assessed as cell growth at 3X10'-5 M after 48 hrs by sulforhodamine B assay; conditions: 786-0, 48 h, read-out: Activity
[33] = tested on: OVCAR-4; assay: Growth inhibition of human OVCAR4 cells assessed as cell growth at 3X10'-5 M after 48 hrs by sulforhodamine B assay; conditions: OVCAR-4, 48 h, read-out: Activity
[34] = tested on: Malme-3M; assay: Growth inhibition of human MALME-3M cells assessed as cell growth at 3X10'-7 M after 48 hrs by sulforhodamine B assay; conditions: read-out: Activity
[35] = tested on: NCI-H226; assay: Growth inhibition of human NCI-H226 cells assessed as cell growth at 3X10'-8 M after 48 hrs by sulforhodamine B assay; conditions: NCI-H226, 48 h, read-out: Activity
[36] = tested on: 786-0; assay: Growth inhibition of human 786-0 cells assessed as cell growth at 3X10'-9 M after 48 hrs by sulforhodamine B assay; conditions: 786-0, 48 h, read-out: Activity

SMILES: O=C(Nc1cccc(-n2cc(-c3ccncc3)c(-c3ccc(Cl)c(O)c3)n2)c1)c1ccc(N2CCOCC2)c(C(F)(F)F)c1
- growth at 5 µM [1]: 46%

SMILES: COc1cc(-c2nn(-c3cccc(NC(=O)Nc4cccc(C(F)(F)F)c4)c3)cc2-c2ccncc2)ccc1Cl
- growth at 5 µM [1]: 14%
- growth at 0.05 µM [2]: 102%

SMILES: O=C(Nc1cccc(-n2cc(-c3ccncc3)c(-c3ccc(Cl)c(O)c3)n2)c1)Nc1ccc(Cl)c(Cl)c1
- growth at 30 µM [3]: 1%
- growth at 30 µM [4]: -70%
- growth at 0.003 µM [5]: 99%
- growth at 3 µM [6]: -11%
- growth at 0.03 µM [7]: 102%
- growth at 0.03 µM [8]: 103%
- growth at 0.3 µM [9]: 86%
- growth at 3 µM [10]: 42%
- growth at 3 µM [11]: 16%
- growth at 3 µM [12]: 14%
- growth at 3 µM [13]: 47%
- growth at 3 µM [14]: 15%
- growth at 30 µM [15]: -13%
- growth at 30 µM [16]: -24%
- growth at 0.003 µM [17]: 93%
- growth at 0.03 µM [18]: 94%
- growth at 0.03 µM [19]: 100%
- growth at 30 µM [20]: 5%
- growth at 0.03 µM [21]: 92%
- growth at 0.3 µM [22]: 94%
- growth at 0.3 µM [23]: 97%
- growth at 0.003 µM [24]: 100%
- growth at 3 µM [25]: -1%
- growth at 0.03 µM [26]: 92%
- growth at 30 µM [27]: -15%
- growth at 0.3 µM [28]: 83%
- growth at 3 µM [29]: 29%
- growth at 0.003 µM [30]: 97%
- growth at 0.3 µM [31]: 111%
- growth at 30 µM [32]: 5%
- growth at 30 µM [33]: 17%
- growth at 0.3 µM [34]: 102%
- growth at 0.03 µM [35]: 97%
- growth at 0.003 µM [36]: 97%

SMILES: O=C(Nc1cccc(-n2cc(-c3ccncc3)c(-c3ccc(Cl)c(O)c3)n2)c1)Nc1cccc(C(F)(F)F)c1
- growth at 30 µM [3]: 22%
- growth at 30 µM [4]: -14%
- growth at 0.003 µM [5]: 91%
- growth at 3 µM [6]: 35%
- growth at 0.03 µM [7]: 96%
- growth at 0.03 µM [8]: 98%
- growth at 0.3 µM [9]: 65%
- growth at 3 µM [10]: 97%
- growth at 3 µM [11]: 31%
- growth at 3 µM [12]: 24%
- growth at 3 µM [13]: 76%
- growth at 3 µM [14]: 52%
- growth at 30 µM [15]: -13%
- growth at 30 µM [16]: -18%
- growth at 0.003 µM [17]: 95%
- growth at 0.03 µM [18]: 98%
- growth at 0.03 µM [19]: 100%
- growth at 30 µM [20]: 3%
- growth at 0.03 µM [21]: 95%
- growth at 0.3 µM [22]: 95%
- growth at 0.3 µM [23]: 100%
- growth at 0.003 µM [24]: 99%
- growth at 3 µM [25]: 50%
- growth at 0.03 µM [26]: 94%
- growth at 30 µM [27]: -10%
- growth at 0.3 µM [28]: 85%
- growth at 3 µM [29]: 29%
- growth at 0.003 µM [30]: 94%
- growth at 0.3 µM [31]: 107%
- growth at 30 µM [32]: 7%
- growth at 30 µM [33]: 16%
- growth at 0.3 µM [34]: 87%
- growth at 0.03 µM [35]: 100%
- growth at 0.003 µM [36]: 98%

SMILES: COc1cc(-c2nn(-c3cccc(NC(=O)Nc4ccc(Cl)c(C(F)(F)F)c4)c3)cc2-c2ccncc2)ccc1Cl
- growth at 30 µM [3]: -43%
- growth at 30 µM [4]: -94%
- growth at 0.003 µM [5]: 103%
- growth at 3 µM [6]: -12%
- growth at 0.03 µM [7]: 94%
- growth at 0.03 µM [8]: 102%
- growth at 0.3 µM [9]: 70%
- growth at 3 µM [10]: 49%
- growth at 3 µM [11]: 5%
- growth at 3 µM [12]: 11%
- growth at 3 µM [13]: 26%
- growth at 3 µM [14]: -9%
- growth at 30 µM [15]: -21%
- growth at 30 µM [16]: -53%
- growth at 0.003 µM [17]: 97%
- growth at 0.03 µM [18]: 109%
- growth at 0.03 µM [19]: 94%
- growth at 30 µM [20]: -37%
- growth at 0.03 µM [21]: 101%
- growth at 0.3 µM [22]: 85%
- growth at 0.3 µM [23]: 98%
- growth at 0.003 µM [24]: 105%
- growth at 3 µM [25]: 25%
- growth at 0.03 µM [26]: 93%
- growth at 30 µM [27]: -47%
- growth at 0.3 µM [28]: 88%
- growth at 3 µM [29]: 5%
- growth at 0.003 µM [30]: 103%
- growth at 0.3 µM [31]: 111%
- growth at 30 µM [32]: -43%
- growth at 30 µM [33]: -2%
- growth at 0.3 µM [34]: 96%
- growth at 0.03 µM [35]: 92%
- growth at 0.003 µM [36]: 101%
